Like-named read-outs stand apart in the source and are kept apart here.
Tests used:
Type in all cases: cell-based
HepG2 cells [1] = test: Measurement of gluconeogenesis inhibitory ability (14C-lactate, glucose formed in cells)
Procedure: (§1) 2 mM metformin was used as a comparative compound for each of the plates (control group).
HepG2 cells (ATCC: American Type Culture Collection) were cultured in 10% serum-containing high glucose media, transferred to no serum-containing low glucose media (DMEM (Gibco), FBS (Gibco)), and then treated with 100 μM of each of the compounds for 24 hours. Then, the cells were treated with 0.5 μCi ^14C-lactate (Amersham Pharmacia) and 10 mM L-lactate (Sigma), and cultured for 4 hours. After cultivation, the media were removed therefrom, and the cells were washed with PBS, treated with 0.1N NaOH and kept at room temperature for 1 hour. Then, the cells were neutralized with 1N HCl, and the content of glucose formed in the cells was measured with a liquid scintillation counter.
A lower measurement value means an increased gluconeogenesis inhibitory ability.

HepG2 cells [2] = test: Measurement of cholesterol synthesis inhibitory ability (cholesterol content in cell lysates, Amplex red)
Procedure: as §1
A cholesterol synthesis inhibitory ability, which is an important function of AMPK (AMP-activated protein kinase), was measured using HepG2 cells (ATCC: American Type Culture Collection) as a hepatic cell model according to the following procedure.
The hepatic cell model HepG2 cells were cultured in 1% serum-containing media (DMEM (Gibco), FBS (Gibco)) for 24 hours, and then treated with 100 μM or 500 μM of each of the compounds prepared in Examples for 24 hours. Then, the cells were disrupted with a lysis solution (0.1 M potassium phosphate, pH 7.4, 0.05 M NaCl, 5 mM cholic acid, 0.1% Triton X-100 (Sigma)). To the disrupted cells was added the same volume of a reaction solution (2 U/mL of a cholesterol oxidizing agent, 2 U/mL of a peroxidase, 0.2 U/mL of a cholesterol esterase, and 300 μM of Amplex red as a fluorescent factor (Molecular Probe)), which was allowed to react at 37° C. for 30 minutes. After completion of the reaction, the content of cholesterol formed in the cell lysates was measured at a wavelength of 560/590 nm (ex/em) using a fluorescence microscope.
A lower measurement value means an increased cholesterol synthesis inhibitory ability.

C2C12 cells = test: Measurement of glucose absorption ability (3H-deoxy-glucose uptake with insulin); details: 100 uM compound with 1 μM insulin, 24 hours, differentiated C2C12, higher value = stronger, more than 200% counts as glucose absorption ability
Procedure: as §1
C2C12 cells (ATCC: American Type Culture Collection), a muscle cell model, were induced to differentiate into muscle cells in 2% bovine fetal serum-containing media (DMEM (Gibco), FBS (Gibco)) for 6 days. The C2C12 cells which differentiated into muscle cells were transferred to serum-free low glucose media (DMEM (Gibco), FBS (Gibco)), treated with 100 μM of each of the compounds, and then cultured with 1 μM of insulin for 24 hours. After cultivation, the cells were treated with 1 μCi ^3H-deoxy-glucose (Amersham Pharmacia) and 10 μM deoxy-glucose (Sigma) at 37° C. for 15 minutes. The media were removed therefrom, and the cells were washed twice with PBS (phosphate buffered saline). The washed cells were treated with 0.1N NaOH and neutralized with 1N HCl. The content of glucose absorbed into the cells was measured with a liquid scintillation counter.
A higher measurement value means a stronger ability to reduce insulin resistance.

HepG2 cells [3] = test: Measurement of triglyceride (triglyceride content in cell lysates, Amplex red)
Procedure: as §1
HepG2 cells (ATCC: American Type Culture Collection) were cultured in 1% serum-containing media (DMEM (Gibco), FBS (Gibco)) for 24 hours, and then treated with 100 μM or 500 μM of each of the compounds prepared in Examples for 24 hours. Then, the cells were disrupted with a lysis solution (0.1 M potassium phosphate, pH 7.4, 0.05 M NaCl, 5 mM cholic acid, 0.1% Triton X-100). […] After completion of the reaction, the content of triglyceride formed in the cell lysates was measured at a wavelength of 560/590 nm (ex/em) using a fluorescence microscope.
A lower measurement value means an increased triglyceride synthesis inhibitory ability.

[4] = 100 uM compound, 24 hours, HepG2, lower value = stronger gluconeogenesis inhibition, 100 µM
[5] = 100 uM compound, 24 hours, HepG2, lower value = stronger cholesterol synthesis inhibition
[6] = 100 uM compound, 24 hours, HepG2, lower value = stronger triglyceride synthesis inhibition
[7] = 100 uM compound, 24 hours, HepG2, lower value = stronger gluconeogenesis inhibition, hydrochloride, 100 µM
[8] = 100 uM compound, 24 hours, HepG2, lower value = stronger cholesterol synthesis inhibition, hydrochloride
[9] = 500 uM compound, 24 hours, HepG2, lower value = stronger cholesterol synthesis inhibition, hydrochloride
[10] = 100 uM compound, 24 hours, HepG2, lower value = stronger triglyceride synthesis inhibition, hydrochloride
[11] = 500 uM compound, 24 hours, HepG2, lower value = stronger triglyceride synthesis inhibition, hydrochloride
[12] = 100 uM compound, 24 hours, HepG2, lower value = stronger gluconeogenesis inhibition
[13] = 500 uM compound, 24 hours, HepG2, lower value = stronger cholesterol synthesis inhibition
[14] = 500 uM compound, 24 hours, HepG2, lower value = stronger triglyceride synthesis inhibition

Row | Compound | Cholesterol (100 uM) Aver. (HepG2 cells [2]; [5]) | Glucose absorption (100 uM) Aver. (C2C12 cells) [%] | Triglyceride (100 uM) Aver. (HepG2 cells [3]; [6]) | Gluconeogenesis inhibition (100 uM) Aver. (HepG2 cells [1]; [12]) | Cholesterol (500 uM) Aver. (HepG2 cells [2]; [13]) | Triglyceride (500 uM) Aver. (HepG2 cells [3]; [14]) | also measured
1 | CN=C(NCCc1cccs1)NC(=N)N.Cl [Example 10, N1-2-(thiophen-2-ylethyl)-N2-methyl biguanide hydrochloride (isomer)] | 52.29 | 6.91 | 76.16 | – | – | – | Gluconeogenesis inhibition (100 uM) Aver. (HepG2 cells [1]; [4]): 5.72
2 | COc1ccc(N=C(NCCc2cccs2)NC(=N)N)cc1.Cl [Example 15, N1-2-(thiophen-2-ylethyl)-N2-(4-methoxy)phenyl biguanide hydrochloride] | – | – | – | – | – | – | Gluconeogenesis inhibition (100 uM) Aver. (HepG2 cells [1]; [7]): 86.69; Cholesterol (100 uM) Aver. (HepG2 cells [2]; [8]): 67.3; Cholesterol (500 uM) Aver. (HepG2 cells [2]; [9]): 39.7; Glucose absorption (100 uM) Aver. (C2C12 cells; hydrochloride): 124.3%; Triglyceride (100 uM) Aver. (HepG2 cells [3]; [10]): 76.6; Triglyceride (500 uM) Aver. (HepG2 cells [3]; [11]): 41.4
3 | Cl.N=C(N)NC(=Nc1ccc(F)cc1)NCCc1cccs1 [Example 18, N1-2-(thiophen-2-ylethyl)-N2-(4-fluorophenyl) biguanide hydrochloride] | 50.3 | 88.16 | 67.0 | 86.69 | 23.4 | 39.5 | –
4 | CN=C(NCCc1cccs1)NC(=N)N.Cl [Example 12, N1-2-(thiophen-2-ylethyl)-N2-methyl biguanide hydrochloride (isomer)] | 69.94 | 221.61 | 67.43 | – | – | – | Gluconeogenesis inhibition (100 uM) Aver. (HepG2 cells [1]; [4]): 13.05
5 | COc1cc(N=C(NCCc2cccs2)NC(=N)N)cc(OC)c1.Cl [Example 32, N1-2-(thiophen-2-ylethyl)-N2-(3,5-dimethoxyphenyl) biguanide hydrochloride] | 48.02 | 11.68 | 70.80 | 152.19 | 26.70 | 28.47 | –
6 | CC(C)(C)c1ccc(N=C(NCCc2cccs2)NC(=N)N)cc1.Cl [Example 28, N1-2-(thiophen-2-ylethyl)-N2-(4-t-butylphenyl) biguanide hydrochloride] | 27.49 | 4.29 | 15.55 | 2.57 | 26.60 | 15.21 | –
7 | Cl.N=C(N)NC(=Nc1cccc2ccccc12)NCCc1cccs1 [Example 3, N1-2-(thiophen-2-ylethyl)-N2-1-naphthyl biguanide hydrochloride] | 30.90 | 15.10 | 5.28 | 3.73 | 31.14 | −6.37 | –
8 | Cl.N=C(N)NC(=NCC1CC1)NCCc1cccs1 [Example 43, N1-2-(thiophen-2-ylethyl)-N2-cyclopropylmethyl biguanide hydrochloride] | 88.47 | 196.03 | 90.52 | 99.28 | 78.80 | 79.92 | –
9 | COCCN=C(NCCc1cccs1)NC(=N)N.Cl [Example 24, N1-2-(thiophen-2-ylethyl)-N2-methoxyethyl biguanide hydrochloride] | 92.58 | 114.91 | 77.91 | 78.89 | 75.75 | 71.93 | –
10 | N1-2-(thiophen-2-ylethyl)-N2-cyclohexyl biguanide hydrochloride [Example 6] | – | 56.15 | – | – | – | – | Gluconeogenesis inhibition (100 uM) Aver. (HepG2 cells [1]): 33.59; Cholesterol (100 uM) Aver. (HepG2 cells [2]): 30.58; Cholesterol (500 uM) Aver. (HepG2 cells [2]): 0.51; Triglyceride (100 uM) Aver. (HepG2 cells [3]): 51.00; Triglyceride (500 uM) Aver. (HepG2 cells [3]): −1.71
11 | Cl.N=C(N)NC(=Nc1cc(Cl)cc(Cl)c1)NCCc1cccs1 [Example 39, N1-2-(thiophen-2-ylethyl)-N2-(3,5-dichlorophenyl) biguanide hydrochloride] | 69.65 | 188.26 | 73.50 | 13.04 | 61.03 | 72.66 | –
12 | COc1ccc(OC)c(N=C(NCCc2cccs2)NC(=N)N)c1.Cl [Example 31, N1-2-(thiophen-2-ylethyl)-N2-(2,5-dimethoxyphenyl) biguanide hydrochloride] | – | – | – | – | – | – | Gluconeogenesis inhibition (100 uM) Aver. (HepG2 cells [1]; [7]): 96.29; Cholesterol (100 uM) Aver. (HepG2 cells [2]; [8]): 75.67; Cholesterol (500 uM) Aver. (HepG2 cells [2]; [9]): 49.39; Glucose absorption (100 uM) Aver. (C2C12 cells; hydrochloride): 168.20%; Triglyceride (100 uM) Aver. (HepG2 cells [3]; [10]): 81.74; Triglyceride (500 uM) Aver. (HepG2 cells [3]; [11]): 57.32
13 | Cl.N=C(N)NC(=Nc1cccc(Br)c1)NCCc1cccs1 [Example 34, N1-2-(thiophen-2-ylethyl)-N2-(3-bromophenyl) biguanide hydrochloride] | 26.00 | 6.05 | 26.57 | 4.96 | 32.53 | 19.49 | –
14 | Cc1ccc(N=C(NCCc2cccs2)NC(=N)N)cc1.Cl [Example 19, N1-2-(thiophen-2-ylethyl)-N2-(4-methylphenyl) biguanide hydrochloride] | 52.9 | 89.16 | 67.7 | 74.32 | 29.6 | 46.4 | –
15 | CN=C(NCCc1cccs1)NC(=N)N.Cl [Example 5, N1-2-(thiophen-2-ylethyl)-N2-methyl biguanide hydrochloride] | – | – | – | – | 41.36 | 41.59 | Gluconeogenesis inhibition (100 uM) Aver. (HepG2 cells [1]; [7]): 58.50; Cholesterol (100 uM) Aver. (HepG2 cells [2]; [8]): 49.29; Glucose absorption (100 uM) Aver. (C2C12 cells; hydrochloride): 350.4%; Triglyceride (100 uM) Aver. (HepG2 cells [3]; [10]): 65.03
16 | CN=C(NCCc1cccs1)NC(=N)N.Cl [Example 11, N1-2-(thiophen-2-ylethyl)-N2-methyl biguanide hydrochloride (isomer)] | 71.14 | 321.21 | 74.98 | – | – | – | Gluconeogenesis inhibition (100 uM) Aver. (HepG2 cells [1]; [4]): 25.03
17 | CCCCN=C(NCCc1cccs1)NC(=N)N.Cl [Example 25, N1-2-(thiophen-2-ylethyl)-N2-butyl biguanide hydrochloride] | – | – | – | – | – | – | Gluconeogenesis inhibition (100 uM) Aver. (HepG2 cells [1]; [7]): 0.00; Cholesterol (100 uM) Aver. (HepG2 cells [2]; [8]): 32.66; Cholesterol (500 uM) Aver. (HepG2 cells [2]; [9]): 19.87; Glucose absorption (100 uM) Aver. (C2C12 cells; hydrochloride): 2.76%; Triglyceride (100 uM) Aver. (HepG2 cells [3]; [10]): 19.21; Triglyceride (500 uM) Aver. (HepG2 cells [3]; [11]): 17.02
